Laboratory results as given in patent US20050119304A1, “Urea derivatives” (priority 2001, published 2005).

What was measured:
human VR1 = biological target: T1, human VR1 (Homo sapiens, UniProt Q8NER1); experiment: Capsaicin-induced Ca2+ influx in the human VR1-transfected CHO cell line (Assay 1); assay type: cell-based; conditions: read-out: hVR1 class
T1 construct: The cloned hVR1 cDNA was constructed with pcDNA3 vector and transfected into a CHOluc9aeq cell line; expressed in transfected cells
Excerpt: [Measurement of Capsaicin-Induced Ca^2+ Influx in the Human VR1-Transfected CHO Cell Line] (Assay 1)
(1) Establishment of the Human VR1-CHOluc9aeq Cell Line
Human vanilloid receptor (hVR1) cDNA was cloned from libraries of axotomized dorsal root ganglia (WO2000/29577). The cloned hVR1 cDNA was constructed with pcDNA3 vector and transfected into a CHOluc9aeq cell line. The cell line contains aequorin and CRE-luciferase reporter genes as read-out signals. The transfectants were cloned by limiting dilution in selection medium (DMEM/F12. medium (Gibco BRL) supplemented with 10% FCS, 1.4 mM Sodium pyruvate, 20 mM HEPES, 0.15% Sodium bicarbonate, 100 U/ml penicillin, 100 μg/ml strept mycin, 2 mM glutamine, non-essential amino acids and 2 mg/ml G418). Ca^2+ influx was examined in the capsaicin-stimulated clones. A high responder clone was selected and used for further experiments in the project. The human VR1-CHOluc9aeq cells were maintained in the selection medium and passaged every 3-4 days at 1-2.5×10^5 cells/flask ([…]).
(2) Measurement of Ca^2+ Influx Using FDSS-3000
Human VR1-CHOluc9aeq cells were suspended in a culture medium which is the same as the selection medium except for G418 and seeded at a density of 1,000 cells per well into 384-well plates (black walled clear-base/Nalge Nunc International). Following the culture for 48 hrs the medium was changed to 2 μM Fluo-3 AM (Molecular Probes) and 0.02% Puronic F-127 in assay buffer (Hank's balanced salt solution (HBSS), 17 mM HEPES (pH7.4), 1 mM Probenecid, 0.1% BSA) and the cells were incubated for 60 min at 25° C. After washing twice with assay buffer the cells were incubated with a test compound or vehicle for 20 min at 25° C. Mobilization of cytoplasmic Ca^2+ was measured by FDSS-3000 (λex=488 nm, λem=540 nm/Hamamatsu Photonics) for 60 sec after the stimulation with 10 nM capsaicin. Integral R was calculated and compared with controls.
The data corresponds to the compounds as yielded by solid phase synthesis and thus to levels of purity of about 40 to 90%.

T1 sequence (Q8NER1 whole entry): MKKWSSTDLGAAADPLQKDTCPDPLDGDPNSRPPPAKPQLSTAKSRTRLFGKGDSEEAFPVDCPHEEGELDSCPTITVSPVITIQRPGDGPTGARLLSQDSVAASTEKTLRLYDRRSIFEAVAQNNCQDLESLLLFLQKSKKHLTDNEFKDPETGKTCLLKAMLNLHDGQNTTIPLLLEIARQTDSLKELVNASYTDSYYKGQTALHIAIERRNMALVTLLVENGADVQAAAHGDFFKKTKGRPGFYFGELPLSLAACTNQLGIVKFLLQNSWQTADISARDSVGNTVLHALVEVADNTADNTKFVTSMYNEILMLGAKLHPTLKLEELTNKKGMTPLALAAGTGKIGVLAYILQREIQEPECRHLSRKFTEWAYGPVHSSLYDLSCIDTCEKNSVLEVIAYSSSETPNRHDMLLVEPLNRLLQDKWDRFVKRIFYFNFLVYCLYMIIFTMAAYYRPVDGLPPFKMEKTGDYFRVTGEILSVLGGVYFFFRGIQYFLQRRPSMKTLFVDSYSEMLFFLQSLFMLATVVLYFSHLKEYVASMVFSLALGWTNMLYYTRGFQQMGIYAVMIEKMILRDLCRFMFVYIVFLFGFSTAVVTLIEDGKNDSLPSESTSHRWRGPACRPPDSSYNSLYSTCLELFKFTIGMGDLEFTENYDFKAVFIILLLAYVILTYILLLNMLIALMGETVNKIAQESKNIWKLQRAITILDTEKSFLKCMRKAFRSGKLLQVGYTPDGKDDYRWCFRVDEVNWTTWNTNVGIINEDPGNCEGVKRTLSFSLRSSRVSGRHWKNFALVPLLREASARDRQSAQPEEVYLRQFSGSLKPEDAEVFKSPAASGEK

| IC50 (human VR1) [nM] | melting point [°C] | SMILES |
| --- | --- | --- |
| 500 to 1000 | 162 to 166 | Cc1nc2cc(NC(=O)Nc3ccc(Cl)c(C(F)(F)F)c3)ccc2[nH]1 [Example 48] |
| 500 to 1000 | 243 to 245 | Cc1nc2cc(NC(=O)Nc3ccc(Oc4ccccc4)cc3)ccc2[nH]1 [Example 49] |
| 500 to 1000 | > 250 | Cc1nc2cc(NC(=O)Nc3ccc(C(C)C)cc3)ccc2[nH]1 [Example 50] |
| 500 to 1000 | 200 to 204 | Cc1nc2cc(NC(=O)Nc3ccc(C)c(Cl)c3)ccc2[nH]1 [Example 51] |
| 500 to 1000 | > 250 | Cc1nc2cc(NC(=O)Nc3ccc(Br)cc3)ccc2[nH]1 [Example 52] |
| < 100 | 189 to 191 | Cc1nc2c(NC(=O)Nc3ccc(Cl)c(C(F)(F)F)c3)cccc2[nH]1 [Example 53] |
| < 100 | 223 to 225 | Cc1nc2c(NC(=O)Nc3ccc(Oc4ccccc4)cc3)cccc2[nH]1 [Example 54] |
| 100 to 500 | 216 to 218 | Cc1nc2c(NC(=O)Nc3ccc(C(C)C)cc3)cccc2[nH]1 [Example 55] |
| 100 to 500 | 216 to 219 | Cc1nc2cc(NC(=O)Nc3cccc(-c4ccccc4)c3)ccc2s1 [Example 56] |
| 100 to 500 | 218 to 220 | O=C(Nc1ccc(Cl)c(C(F)(F)F)c1)Nc1ccc2[nH]cnc2c1 [Example 57] |
| 100 to 500 | 235 to 237 | O=C(Nc1ccc(Oc2ccccc2)cc1)Nc1ccc2[nH]cnc2c1 [Example 58] |
| 500 to 1000 | 226 to 229 | CC(C)c1ccc(NC(=O)Nc2ccc3[nH]cnc3c2)cc1 [Example 59] |
| 100 to 500 | 238 to 240 | O=C(Nc1ccc(Br)cc1)Nc1cccc2[nH]ccc12 [Example 60] |
| 500 to 1000 | 230 to 232 | COc1ccc(NC(=O)Nc2cccc3[nH]ccc23)cc1 [Example 61] |
| < 100 | > 250 | O=C(Nc1cccc2ccccc12)Nc1cccc2[nH]ccc12 [Example 62] |
| < 100 | 244 to 245 | O=C(Nc1ccc(Cl)c(Cl)c1)Nc1cccc2[nH]ccc12 [Example 63] |
| 500 to 1000 | 247 to 248 | O=C(Nc1ccc(F)cc1F)Nc1cccc2[nH]ccc12 [Example 64] |
| < 100 | 246 to 247 | Cc1ccc(NC(=O)Nc2cccc3[nH]ccc23)cc1Cl [Example 65] |
| < 100 | 222 to 224 | CC(C)c1ccc(NC(=O)Nc2cccc3[nH]ccc23)cc1 [Example 66] |
| 500 to 1000 | > 250 | O=C(Nc1ccc(F)cc1)Nc1ccc2[nH]ncc2c1 [Example 67] |
| < 100 | 211 to 213 | O=C(Nc1cc(C(F)(F)F)ccc1Cl)Nc1cccc2[nH]ccc12 [Example 68] |
| 100 to 500 | 231 to 233 | O=C(Nc1ccc(Oc2ccccc2)cc1)Nc1ccc2[nH]ccc2c1 [Example 69] |
| 500 to 1000 | 250 | Cc1cccc(NC(=O)Nc2ccc3[nH]ccc3c2)c1 [Example 70] |
| 100 to 500 | 236 to 239 | CSc1cccc(NC(=O)Nc2ccc3[nH]ccc3c2)c1 [Example 71] |
| 500 to 1000 | 243 to 245 | O=C(Nc1ccc(F)cc1)Nc1ccc2[nH]ccc2c1 [Example 72] |
| 500 to 1000 | 227 to 229 | COc1cccc(NC(=O)Nc2ccc3[nH]ccc3c2)c1 [Example 73] |
| 500 to 1000 | > 250 | O=C(Nc1ccc(Br)cc1)Nc1ccc2[nH]ccc2c1 [Example 74] |
| 500 to 1000 | 239 to 241 | O=C(Nc1ccc(Oc2ccccc2)cc1)Nc1ccc2[nH]c(C(F)(F)F)nc2c1 [Example 75] |
